# Columns and labels:
# [1] = molecular target: T1, P-gp (Homo sapiens, UniProt P08183); assay: MDCK-MDR1 bidirectional permeability / efflux assay; format: in vitro ADME; conditions: MDCK-MDR1; for Papp A→B at 120 min / Papp B→A at 120 min / efflux ratio at 120 min: dog
# T1 construct: host or cells: MDCK-MDR1 (Madin Darby canine kidney cells carrying the MDR1 gene)
# Procedure: The assay was carried out at Sai Life Sciences. Stock solutions of 6, 20, assay controls loperamide, atenolol, and propanolol (4 and 20 mM), and P-gp inhibitor zosuquidar (10 mM) were prepared in DMSO. Then the stock solutions from each test compound were diluted in HBSS buffer containing 10 mM HEPES to obtain the assay working solutions without the P-gp inhibitor at 2 and 10 μM (0.1 % DMSO v/v). Into working solutions containing zosuquidar (5 μM) were individually diluted 6, 20, and loperamide to obtain working solutions containing the test compounds at 2 or 10 μM and zosuquidar at 5 μM.
# The MDCK-MDR1 (Madin Darby canine kidney - Multidrug Resistance gene-1) cells were cultured in DMEM media supplemented with 10 % FBS and antibiotics. For transport studies, cells were seeded into PET trans filter membranes (Millipore #PSRP010R5; 1.0 μm pore size) at a density of 1.2 × 10^5 cells/well and colchicine was added to the flasks and plates according to their volume. After 24 h, the media were replaced by fresh media and then changed every 2 days over 8 days. The media were removed from the wells of the basal and apical compartments of the plates, and a solution of HBSS with or without zosuquidar (5 μM) was added to the apical (400 μL) and basal (800 μL) sides of the plates. The plates were pre-incubated at 37 °C for 30 min in humidified air with 5 % CO2. The TTER (Transepithelial-Transendothelial Electrical Resistance) value for each well was recorded (assay TEER >83 Ω.cm^2). The buffer was removed from both compartments, and for the apical to basal direction transport determination, the apical compartment was loaded with 400 μL of the working solutions of the tested compounds or controls (2 or 10 μM) in the presence or absence of zosuquidar (5 μM), and the basal compartment was loaded with 800 μL of HBSS (0.1 % DMSO v/v). For the basal to apical direction transport determination, the compartments were loaded in their reverse order. The assay was performed in duplicate for the two transport directions [apical to basolateral (A → B) and basolateral to apical (B → A)]. After 120 min, 100 μL samples from both the apical and basal sides of the plate were transferred to new 96-deep well plates, quenched with acetonitrile containing an internal standard, vortexed for 5 min, and then centrifuged at 4000 rpm for 10 min. The same procedure was used to prepare a 96-deep well plate containing non-assayed working solutions (t = 0 concentrations). After centrifugation, 100 μL of the supernatant of each well was transferred to a new 96-well plate, and the samples were analyzed by LC-MS/MS.
# For each experiment, the apparent permeability (Papp) for each direction and the efflux ratio (ER) were determined by the equations: Papp(cm/s)=(dQ/dt)/A×Co
# where dQ/dt is the rate of permeation of the tested compounds across the (0 and 120 min) after correcting for dilution; A is the area of the filter (0.7 cm^2); Co is the initial concentration of the compounds on the donor compartment.
# Where P(B→A) is the apparent permeability of the compounds from the basal to the apical direction and P(A→B) is the apparent permeability from the apical to basal direction. Lucifer Yellow was used as a control of the assay to evaluate monolayer integrity after incubation with the working solutions of the compounds, and the results were validated if the permeability of Lucifer Yellow from the apical to the basal side after 1-h incubation was kept <2 %. The results are presented as an average of two independent experiments.
# [2] = tested on: HT22 hippocampal cells; assay: DAPRed autophagy dye live cell imaging; format: cell-based, mouse; conditions: 3 μM, 5 h treatment, bafilomycin 0.1 μM in the last 3 h
# Procedure: HT22 immortalized mouse hippocampal neuronal cell line was maintained in DMEM supplemented with 10% FBS and 1% penicillin-streptomycin under standard conditions (37 °C, 5% CO2). On the day before the experiment, HT22 cells were transferred to a sterile poly-D-lysine-coated Nunc™ Lab-Tek™ II Chambered Coverglass (8 wells; Thermo Fisher Sci. cat. 155,409) at a concentration of 40,000 cells/300 μL of media in each well and incubated overnight at 37 °C. Stock solutions of Torin-1 (10 mM) and 20 (10 mM) were prepared in DMSO and then diluted in media to obtain the final treatment solutions at 0.2 and 3 μM, respectively. The media was removed, the cells were quickly washed with 1×PBS solution, and fresh media containing the compounds or the DMSO (0.1 % v/v) were transferred to the wells. The plates were incubated for 2 h. The media was removed, and after washing once with 1×PBS, fresh media containing Bafilomycin (0.1 μM), DAPRed dye (0.25 μM) and Hoescht 33,342 (55 μg/mL) was added to the wells and the cells were incubated for 3 h at 37 °C. […] Puncta structures >0.2 μm were then identified using Otsu thresholding and the results represented as particles per cell for each set of images analyzed. […] The statistical differences between two or more groups were determined by One-way ANOVA followed by Sidak post-hoc multiple-comparison test. […]
# T1 sequence (P08183 whole entry): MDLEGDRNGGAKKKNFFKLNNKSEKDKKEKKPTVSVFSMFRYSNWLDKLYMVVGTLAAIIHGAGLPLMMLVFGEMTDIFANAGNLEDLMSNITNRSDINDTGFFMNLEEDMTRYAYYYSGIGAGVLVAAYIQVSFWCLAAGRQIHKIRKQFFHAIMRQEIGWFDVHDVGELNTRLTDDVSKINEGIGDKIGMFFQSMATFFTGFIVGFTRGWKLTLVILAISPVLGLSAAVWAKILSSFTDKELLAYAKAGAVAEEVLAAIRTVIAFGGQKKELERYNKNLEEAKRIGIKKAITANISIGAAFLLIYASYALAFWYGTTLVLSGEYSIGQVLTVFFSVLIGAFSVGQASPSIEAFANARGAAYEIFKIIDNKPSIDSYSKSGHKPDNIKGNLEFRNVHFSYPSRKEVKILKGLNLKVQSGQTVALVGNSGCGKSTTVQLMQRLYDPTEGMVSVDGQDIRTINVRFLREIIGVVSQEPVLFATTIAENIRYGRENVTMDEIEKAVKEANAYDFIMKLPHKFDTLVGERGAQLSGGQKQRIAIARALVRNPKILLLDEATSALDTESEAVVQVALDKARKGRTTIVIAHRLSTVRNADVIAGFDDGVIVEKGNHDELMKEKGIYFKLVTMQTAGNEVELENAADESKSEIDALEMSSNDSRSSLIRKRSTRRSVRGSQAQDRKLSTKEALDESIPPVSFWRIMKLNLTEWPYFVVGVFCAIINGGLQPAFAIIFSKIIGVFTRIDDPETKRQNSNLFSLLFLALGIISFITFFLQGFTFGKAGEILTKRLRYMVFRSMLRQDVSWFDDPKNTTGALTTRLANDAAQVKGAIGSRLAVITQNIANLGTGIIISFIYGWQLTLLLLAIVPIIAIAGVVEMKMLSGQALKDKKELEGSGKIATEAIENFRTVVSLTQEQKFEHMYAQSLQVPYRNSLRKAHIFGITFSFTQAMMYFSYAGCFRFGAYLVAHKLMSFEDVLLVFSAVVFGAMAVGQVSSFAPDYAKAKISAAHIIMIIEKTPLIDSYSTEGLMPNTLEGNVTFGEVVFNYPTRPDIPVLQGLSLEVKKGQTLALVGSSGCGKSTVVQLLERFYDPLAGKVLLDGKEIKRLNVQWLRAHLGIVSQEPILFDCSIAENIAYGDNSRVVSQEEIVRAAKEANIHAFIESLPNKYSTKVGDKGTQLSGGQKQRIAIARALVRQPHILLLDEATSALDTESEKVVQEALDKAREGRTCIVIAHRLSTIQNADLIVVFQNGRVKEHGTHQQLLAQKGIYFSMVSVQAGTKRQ
compound,measurement,setting,value
"CC(C)(Oc1cc(C(F)(F)F)cc(C(F)(F)F)c1)C1CC(=O)CC(=O)C1 [Compound 20, 5-(2-(3,5-bis(trifluoromethyl)phenoxy)propan-2-yl)cyclohexane-1,3-dione]",substrate for the P-gp transporter,[1],substrates
same,Papp A→B at 120 min,[1],5.82 ± 0.06 ×10⁻⁶ cm/s
same,Papp B→A at 120 min,[1],14.7 ± 0.78 ×10⁻⁶ cm/s
same,efflux ratio at 120 min,[1],2.53
same,DAPRed fluorescence signal (autophagy flux) compared to vehicle,[2],increasing DAPRed fluorescence signal
"O=C1CC(=O)CC(/C=C/c2cc(C(F)(F)F)cc(C(F)(F)F)c2)C1 [Compound 6, (E)-5-(3,5-Bis(trifluoromethyl)styryl)cyclohexane-1,3-dione]",substrate for the P-gp transporter,[1],substrates
same,Papp A→B at 120 min,[1],10.6 ± 1.28 ×10⁻⁶ cm/s
same,Papp B→A at 120 min,[1],24.31 ± 0.18 ×10⁻⁶ cm/s
same,efflux ratio at 120 min,[1],2.29

# Reference: article PMC12648443, “Modifications of NU-9, a potent protein aggregation inhibitor. Properties and activity in a cellular model of amyotrophic lateral sclerosis” (Bioorganic chemistry, 2025)
